Reference: patent US7589123B2, “Chemical compounds” (Phytopharm PLC, priority 2006, dated 2009)
Each block holds one compound with its values, some of them ahead of it.

Key:
TRPV1 receptor [1] = target: T1, TRPV1 receptor (Rattus norvegicus, UniProt O35433); experiment: TRPV1 modulation in DRG neurones: CGRP release in absence and presence of capsaicin (Assay 2); type: cell-based; parameters: The culture used for this experiment contained sensory neurones, Schwann cells and fibroblasts; endogenous in cells; host or cells: primary rat DRG sensory neurone culture (with Schwann cells and fibroblasts); conditions: 20 min; for inhibition at 3 µM: 3 μM with capsaicin 1 μM; for inhibition at 3 µM / inhibition at 30 µM: −ve: inhibition, +ve: potentiation of capsaicin response, read-out: Effect of test compounds on capsaicin (1 μM)-induced CGRP release (%); for inhibition at 30 µM: 30 μM with capsaicin 1 μM; for Emax at 3 µM: test compound alone 3 μM; for Emax at 3 µM / Emax at 30 µM: rat DRG sensory neurones, read-out: CGRP release (% of capsaicin (1 μM) response); for Emax at 30 µM: test compound alone 30 μM
T1 sequence (O35433 whole entry): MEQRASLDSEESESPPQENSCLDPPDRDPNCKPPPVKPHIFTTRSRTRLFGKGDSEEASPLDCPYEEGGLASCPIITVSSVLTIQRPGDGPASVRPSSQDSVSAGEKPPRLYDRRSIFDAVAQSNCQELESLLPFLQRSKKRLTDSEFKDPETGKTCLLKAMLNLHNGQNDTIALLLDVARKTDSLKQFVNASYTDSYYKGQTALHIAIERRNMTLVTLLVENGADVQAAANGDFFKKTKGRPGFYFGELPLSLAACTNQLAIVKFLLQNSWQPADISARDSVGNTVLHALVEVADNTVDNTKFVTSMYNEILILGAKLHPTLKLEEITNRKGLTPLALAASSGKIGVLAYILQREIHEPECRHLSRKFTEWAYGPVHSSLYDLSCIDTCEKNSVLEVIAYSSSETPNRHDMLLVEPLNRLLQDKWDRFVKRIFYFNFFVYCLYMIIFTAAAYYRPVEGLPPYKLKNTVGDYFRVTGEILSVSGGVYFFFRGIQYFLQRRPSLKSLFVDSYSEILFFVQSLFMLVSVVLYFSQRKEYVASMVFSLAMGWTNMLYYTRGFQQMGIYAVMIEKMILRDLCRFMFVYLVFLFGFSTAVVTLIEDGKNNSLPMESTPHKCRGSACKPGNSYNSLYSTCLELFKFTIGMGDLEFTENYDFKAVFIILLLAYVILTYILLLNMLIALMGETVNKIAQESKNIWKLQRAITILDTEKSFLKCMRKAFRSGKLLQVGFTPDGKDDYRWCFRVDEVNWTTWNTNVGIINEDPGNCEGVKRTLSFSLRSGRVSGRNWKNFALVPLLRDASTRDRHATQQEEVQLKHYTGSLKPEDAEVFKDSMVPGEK

[2] = tested on: α-smooth muscle actin (α-SMA) mRNA; experiment: Anti-remodelling activity in human lung fibroblasts (HFL1): TGFβ-induced α-SMA mRNA (Assay 4); type: cell-based; conditions: Homo sapiens, HFL1 cells, TGFβ 10 ng/ml, 24 h, read-out: Inhibition of α-SMA mRNA synthesis (%)
Summary of the method: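 Real-time RT-PCR of α-SMA mRNA, GAPDH as reference, measured after 24 h exposure of low-serum-primed HFL1 cells to 10 ng/ml TGFβ with test compounds (3 and 30 μM) in 10% FBS medium. Readout is inhibition of TGFβ-driven α-SMA mRNA overexpression.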

[3] = tested on: histamine-induced contractions in guinea pig ileum; experiment: Inhibition of histamine-induced contractions in guinea pig ileum (Assay 3); conditions: Cavia porcellus, histamine 1.7 μM, read-out: Inhibition of histamine-induced contraction (%)
Summary of the method: (§1)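 Isolated male guinea pig ileum strips in Krebs at 32° C, pH 7.4, 1 g resting tension, isotonic recording. Contraction to test compound (3 and 30 μM) alone recorded, then inhibition of responses to histamine 1.7 μM or 5-HT 2.6 μM (~EC60-70, 5 min) measured in its continued presence.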

[4] = tested on: IL-1α-induced PGE2 release; experiment: IL-1α-induced PGE2 release in human diploid lung fibroblasts (WI-38) (Assay 5); type: cell-based; conditions: Homo sapiens, WI-38 cells, IL-1α 1 nM, overnight
Summary of the method: (§2)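 WI-38 fibroblasts stimulated overnight at 37 °C with 1 nM IL-1α plus test compound at 3 and 30 μM in MEM with 10% FBS, pH 7.3; released PGE2 in supernatant quantified by radioimmunoassay as percent inhibition. Viability then checked by Alamar Blue, 4 h at 37 °C, fluorescence ex 530/em 590 nm.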

[5] = tested on: 5-HT-induced contractions in guinea pig ileum; experiment: Inhibition of 5-HT-induced contractions in guinea pig ileum (Assay 3); conditions: Cavia porcellus, 5-HT 2.6 μM, read-out: Inhibition of 5-HT-induced contraction (%)
Summary of the method: as §1

5-lipoxygenase = target: T2, 5-lipoxygenase (Homo sapiens, UniProt P09917); experiment: 5-lipoxygenase activity (LTB4) in human peripheral blood mononuclear leukocytes (Assay 6); type: cell-based; conditions: human PBMLs, A23187 30 μM, read-out: Inhibition of 5-LO (%)
T2 construct: endogenous in cells; host or cells: human peripheral blood mononuclear leukocytes (PBMLs)
T2 sequence (P09917 1-674): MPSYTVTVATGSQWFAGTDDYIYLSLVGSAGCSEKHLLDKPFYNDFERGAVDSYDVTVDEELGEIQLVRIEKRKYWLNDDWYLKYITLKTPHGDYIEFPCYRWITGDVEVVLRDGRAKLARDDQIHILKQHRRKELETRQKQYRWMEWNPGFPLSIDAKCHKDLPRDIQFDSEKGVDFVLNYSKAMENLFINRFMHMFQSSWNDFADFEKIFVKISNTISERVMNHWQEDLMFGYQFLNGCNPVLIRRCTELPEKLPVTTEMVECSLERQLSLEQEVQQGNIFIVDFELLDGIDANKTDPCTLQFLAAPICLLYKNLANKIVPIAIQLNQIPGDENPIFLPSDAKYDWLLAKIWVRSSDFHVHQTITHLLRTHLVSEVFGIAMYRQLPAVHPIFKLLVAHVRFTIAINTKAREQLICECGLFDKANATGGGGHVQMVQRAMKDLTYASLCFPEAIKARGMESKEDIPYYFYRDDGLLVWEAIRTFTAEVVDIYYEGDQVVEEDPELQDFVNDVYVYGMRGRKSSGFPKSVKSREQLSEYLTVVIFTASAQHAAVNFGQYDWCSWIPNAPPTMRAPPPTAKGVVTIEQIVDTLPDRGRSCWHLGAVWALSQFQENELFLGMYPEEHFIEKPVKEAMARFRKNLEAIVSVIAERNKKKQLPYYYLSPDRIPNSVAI
Summary of the method: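 Human PBMLs (5×10^6 cells, Ficoll-isolated) stimulated with 30 μM A23187 plus compound at 3 or 30 μM or 0.1% DMSO in HBSS pH 7.4, 37° C., 15 min. After NaOH neutralisation and centrifugation, supernatant LTB4 measured by enzyme immunoassay.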

WI-38 cells = experiment: Viability of WI-38 cells, Alamar Blue (Assay 5); type: cell-based, human
Summary of the method: as §2

TRPV1 receptor [6] = target: T1, TRPV1 receptor; experiment: TRPV1 receptor modulation in the rat vas deferens, EFS-induced contraction (Assay 1); conditions: electrical field stimulation, read-out: Inhibition of EFS response relative to capsaicin
Description: Wistar derived male rats (275±25 g) were suppressed by CO2 overexposure. The vas deferens was removed, placed in Krebs solution, pH 7.4 (composition in g/l: NaCl 6.89, KCl 0.35, CaCl2 0.277, KH2PO4 0.163, MgSO4.7H2O 0.296, NaHCO3 2.1 glucose 1.8) and excess fat and connective tissue removed. The portion of the vas deferens closest to the prostate was cut in half and each half was placed under 1 g tension in a 10 ml bath containing Krebs solution at 32° C. The tissue was contracted by electrical field stimulation (EFS; 60% of maximum stimulation, 0.015 Hz, 0.5 ms in duration) and contractile responses were measured.

inhibition at 3 µM (TRPV1 receptor [1]): 47% | inhibition at 30 µM (TRPV1 receptor [1]): -31% | Emax at 3 µM (TRPV1 receptor [1]): 66% | Emax at 30 µM (TRPV1 receptor [1]): 248% | melting point: 101 to 102 °C | inhibition at 3 µM (5-lipoxygenase): 60% | inhibition at 30 µM (5-lipoxygenase): 98%
Structure (SMILES): COc1cc(CCC(=O)CC(=O)c2ccc3ccccc3c2)ccc1O [Compound 26, 5-(4-Hydroxy-3-methoxyphenyl)-1-(naphthalene-2-yl)-pentane-1,3-dione]
inhibition at 3 µM [2]: 2% | inhibition at 30 µM [2]: 64% | inhibition at 3 µM [3]: 3% | inhibition at 30 µM [3]: 34% | inhibition at 3 µM [4]: 81% | inhibition at 30 µM [4]: 100% | inhibition at 3 µM [5]: 7% | inhibition at 30 µM [5]: 40% | Decrease in cell viability (%) (WI-38 cells; 3 μM): 3% | Decrease in cell viability (%) (WI-38 cells; 30 μM): 10%

Emax (TRPV1 receptor [6]): 6%
Structure (SMILES): COc1cc(/C=C/C(=O)CC(=O)C2(C)CCCCC2)ccc1O [Compound 42, (E)-5-(4-Hydroxy-3-methoxyphenyl)-1-(1-methylcyclohexyl)-pent-4-ene-1,3-dione]

Emax (TRPV1 receptor [6]): -12%
Structure (SMILES): COc1cc(/C=C/C(=O)CC(=O)C(C)C)ccc1O [Compound 33, (E)-1-(4-Hydroxy-3-methoxyphenyl)-6-methyl-hept-1-ene-3,5-dione]

Emax (TRPV1 receptor [6]): 14% | melting point: 159 to 161.5 °C
Structure (SMILES): COc1cc(/C=C/C(=O)CC(=O)c2ccccc2)ccc1O [Compound 68, (E)-5-(4-Hydroxy-3-methoxyphenyl)-1-phenyl-pent-4-ene-1,3-dione]

Emax (TRPV1 receptor [6]): -15%
Structure (SMILES): COc1cc(/C=C/C(=O)CC(=O)C(C)(C)C)ccc1O [Compound 34, (E)-1-(4-Hydroxy-3-methoxylphenyl)-6,6-dimethyl-hept-1-ene-3,5-dione]
inhibition at 3 µM [3]: 11% | inhibition at 30 µM [3]: 22% | inhibition at 3 µM [4]: 72% | inhibition at 30 µM [4]: 109% | inhibition at 3 µM [5]: 2% | inhibition at 30 µM [5]: 43% | Decrease in cell viability (%) (WI-38 cells; 3 μM): 3% | Decrease in cell viability (%) (WI-38 cells; 30 μM): 5%

Emax (TRPV1 receptor [6]): 63%
Structure (SMILES): COc1cc(CCC(=O)CC(=O)CC(C)(C)C)ccc1O [Compound 3, 7,7-Dimethyl-1-(4-hydroxy-3-methoxyphenyl)-octane-3,5-dione]

Emax (TRPV1 receptor [6]): -82%
Structure (SMILES): COc1cc(/C=C/C(=O)CC(=O)C2CCCC2)ccc1O [Compound 40, (E)-1-Cyclopentyl-5-(4-hydroxy-3-methoxyphenyl)-pent-4-ene-1,3-dione]

inhibition at 3 µM (TRPV1 receptor [1]): 10% | inhibition at 30 µM (TRPV1 receptor [1]): -12% | Emax at 3 µM (TRPV1 receptor [1]): 146% | Emax at 30 µM (TRPV1 receptor [1]): 146% | melting point: 118 to 119 °C | inhibition at 3 µM (5-lipoxygenase): 58% | inhibition at 30 µM (5-lipoxygenase): 94%
Structure (SMILES): COc1cc(CCC(=O)CC(=O)c2ccc(-c3ccccc3)cc2)ccc1O [Compound 18, 1-(Biphenyl-4-yl)-5-(4-hydroxy-3-methoxyphenyl)-pentane-1,3-dione]
inhibition at 3 µM [2]: 13% | inhibition at 30 µM [2]: 79% | inhibition at 3 µM [3]: 0% | inhibition at 30 µM [3]: 7% | inhibition at 3 µM [4]: 86% | inhibition at 30 µM [4]: 99% | inhibition at 3 µM [5]: 0% | inhibition at 30 µM [5]: 3% | Decrease in cell viability (%) (WI-38 cells; 3 μM): 3% | Decrease in cell viability (%) (WI-38 cells; 30 μM): 15%

Emax (TRPV1 receptor [6]): -13%
Structure (SMILES): COc1cc(/C=C/C(=O)C(C)C(=O)c2ccccc2)ccc1O (centres unmarked) [Compound 43, (E)-5-(4-Hydroxy-3-methoxyphenyl)-2-methyl-1-phenyl-pent-4-ene-1,3-dione]

Emax (TRPV1 receptor [6]): 25% | melting point: 130 to 132 °C
Structure (SMILES): COc1cc(/C=C/C(=O)CC(=O)CC(C)(C)C)ccc1O [Compound 35, (E)-7,7-Dimethyl-1-(4-hydroxy-3-methoxyphenyl)-oct-1-ene-3,5-dione]

Emax (TRPV1 receptor [6]): 36%
Structure (SMILES): COc1cc(CCC(=O)CC(=O)C2CCCC2)ccc1O [Compound 8, 1-Cyclopentyl-5-(4-hydroxy-3-methoxyphenyl)-pentane-1,3-dione]

Emax (TRPV1 receptor [6]): -36% | melting point: 78 to 80 °C
Structure (SMILES): COc1cc(/C=C/C(=O)CC(=O)C2(C)CC2)ccc1O [Compound 38, (E)-5-(4-Hydroxy-3-methoxylphenyl)-1-(1-methylcyclopropyl)-pent-4-ene-1,3-dione]

Emax (TRPV1 receptor [6]): 16%
Structure (SMILES): COc1cc(CCC(=O)CC(=O)C2(C)CCCCC2)ccc1O [Compound 10, 5-(4-Hydroxy-3-methoxy-phenyl)-1-(1-methyl-cyclohexyl)-pentane-1,3-dione]
